Paper PMC12144444, “Cooperative inhibition in cytochrome P450 between a substrate and an apparent noncompetitive inhibitor” (The Journal of Biological Chemistry, 2025)

Target: CYP105A1 R84A (Streptomyces griseolus, UniProt P18326, R84A)
Conditions: diclofenac 4′-hydroxylation, Lineweaver-Burk and Dixon plots
Experimental: Ethanol concentration in the final reaction solution was 0.8%. […] After each interval, the reaction was stopped by an addition of 50 μl of acetonitrile into each reaction solution. The solution was centrifuged at 10,000 x g for 15 min, and the resultant supernatant was analyzed by ultra performance liquid chromatography (UPLC) under the following conditions: apparatus, H-Class (Waters Co.); column, ACQUITY UPLC BEH C18 (1.7 μm, 2.1 × 100 mm) (Waters Co.); UV detection, 276 nm; column temperature, 40 °C; flow rate, 0.7 ml/min; injection volume, 10 μl; mobile phase, a linear gradient of 25 to 43% acetonitrile in aqueous solution containing 0.1% trifluoroacetic acid (TFA) for 3 min, followed by 43 to 58% acetonitrile in aqueous solution containing 0.1% TFA for 1 min, followed by 58 to 100% acetonitrile in aqueous solution containing 0.1% TFA for 2 min. […] Two separate experiments were performed to obtain the kobs value for 30 μM diclofenac in 5 μM miconazole. Three separate experiments were performed to obtain all other kobs values. Lineweaver-Burk plot and Dixon plot were prepared from the obtained kobs for each reaction.

Clc1ccc(COC(Cn2ccnc2)c2ccc(Cl)cc2Cl)c(Cl)c1 (centres unmarked) [Miconazole]
Type of inhibition: competitive inhibition

N#C/C(=C1/SCC(c2ccccc2Cl)S1)n1ccnc1 (centres unmarked) [Lanoconazole]
Type of inhibition: noncompetitive inhibition
